Reference: the NIST ThermoML archive (doi:10.1016/j.tca.2018.04.007)
± gives the expanded uncertainty stated by the source.

Tests used:
[1] = refractive index (Na D-line) (dimensionless); conditions: 101.33 kPa, Liquid, Standard Abbe refractometry
[2] = 101.33 kPa, Liquid; for viscosity: Capillary tube (Ostwald / Ubbelohde) method; for mass density: Vibrating tube method; for thermal conductivity: transient hot wire; for electrical conductivity: Direct current cell with electrodes

Row | SMILES | refractive index ([1]; 283.15 K) | refractive index ([1]; 293.15 K) | refractive index ([1]; 303.15 K) | refractive index ([1]; 313.15 K) | refractive index ([1]; 323.15 K) | refractive index ([1]; 333.15 K) | refractive index ([1]; 343.15 K) | mass density ([2]; 283.15 K) | viscosity ([2]; 293.15 K) | electrical conductivity ([2]; 293.15 K) | mass density ([2]; 293.15 K) | thermal conductivity ([2]; 293.15 K) | viscosity ([2]; 303.15 K) | electrical conductivity ([2]; 303.15 K) | mass density ([2]; 303.15 K) | thermal conductivity ([2]; 303.15 K) | viscosity ([2]; 313.15 K) | thermal conductivity ([2]; 313.15 K) | thermal conductivity ([2]; 323.15 K) | thermal conductivity ([2]; 333.15 K) | also measured
1 | CCCC[P+](C)(CCCC)CCCC.O=S(=O)([N-]S(=O)(=O)C(F)(F)F)C(F)(F)F | 1.4403 ± 0.0005 | 1.4374 ± 0.0005 | 1.4344 ± 0.0005 | 1.4314 ± 0.0005 | 1.4285 ± 0.0005 | 1.4255 ± 0.0005 | 1.4228 ± 0.0005 | 1267.21 ± 2 kg/m3 | 299.3 ± 9.5 mPa·s | 0.0367 ± 0.0037 S/m | 1258.68 ± 2 kg/m3 | 0.126 ± 0.002 W/m/K | 156 ± 3.4 mPa·s | 0.0743 ± 0.0074 S/m | 1250.31 ± 2 kg/m3 | 0.125 ± 0.002 W/m/K | 87.7 ± 1.3 mPa·s | 0.122 ± 0.002 W/m/K | 0.123 ± 0.002 W/m/K | 0.122 ± 0.002 W/m/K | viscosity ([2]; 283.15 K): 616.7 ± 26 mPa·s; thermal conductivity ([2]; 283.15 K): 0.126 ± 0.002 W/m/K; electrical conductivity ([2]; 313.15 K): 0.123 ± 0.012 S/m; mass density ([2]; 313.15 K): 1242.07 ± 2 kg/m3; viscosity ([2]; 323.15 K): 54.7 ± 0.7 mPa·s; electrical conductivity ([2]; 323.15 K): 0.187 ± 0.019 S/m; mass density ([2]; 323.15 K): 1233.84 ± 2 kg/m3; viscosity ([2]; 333.15 K): 38.4 ± 0.5 mPa·s; electrical conductivity ([2]; 333.15 K): 0.279 ± 0.028 S/m; mass density ([2]; 333.15 K): 1225.64 ± 2 kg/m3; viscosity ([2]; 343.15 K): 27.5 ± 0.3 mPa·s; electrical conductivity ([2]; 343.15 K): 0.405 ± 0.041 S/m; mass density ([2]; 343.15 K): 1217.49 ± 2 kg/m3; thermal conductivity ([2]; 343.15 K): 0.121 ± 0.002 W/m/K
2 | CCCCn1cc[n+](C)c1.COS(=O)(=O)[O-] [1-butyl-3-methylimidazolium methyl sulfate] | 1.4831 ± 0.0005 | 1.4804 ± 0.0005 | 1.4781 ± 0.0005 | 1.4753 ± 0.0005 | 1.4729 ± 0.0005 | 1.4704 ± 0.0005 | 1.4678 ± 0.0005 | 1218.78 ± 2 kg/m3 | 269.1 ± 8 mPa·s | 0.104 ± 0.01 S/m | 1211.96 ± 2 kg/m3 | 0.177 ± 0.002 W/m/K | 151.9 ± 3.3 mPa·s | 0.177 ± 0.018 S/m | 1205.33 ± 2 kg/m3 | 0.176 ± 0.002 W/m/K | 91.7 ± 1.4 mPa·s | 0.176 ± 0.002 W/m/K | 0.174 ± 0.002 W/m/K | 0.173 ± 0.002 W/m/K | viscosity ([2]; 283.15 K): 531.6 ± 22 mPa·s; thermal conductivity ([2]; 283.15 K): 0.179 ± 0.002 W/m/K; electrical conductivity ([2]; 313.15 K): 0.279 ± 0.028 S/m; mass density ([2]; 313.15 K): 1198.79 ± 2 kg/m3; viscosity ([2]; 323.15 K): 59.6 ± 0.7 mPa·s; electrical conductivity ([2]; 323.15 K): 0.426 ± 0.043 S/m; mass density ([2]; 323.15 K): 1192.26 ± 2 kg/m3; viscosity ([2]; 333.15 K): 40.5 ± 0.5 mPa·s; electrical conductivity ([2]; 333.15 K): 0.623 ± 0.062 S/m; mass density ([2]; 333.15 K): 1185.76 ± 2 kg/m3; viscosity ([2]; 343.15 K): 28.9 ± 0.4 mPa·s; electrical conductivity ([2]; 343.15 K): 0.884 ± 0.088 S/m; mass density ([2]; 343.15 K): 1179.31 ± 2 kg/m3; thermal conductivity ([2]; 343.15 K): 0.172 ± 0.002 W/m/K
3 | COS(=O)(=O)[O-].C[n+]1ccccc1 [1-methylpyridinium methylsulfate] | 1.5164 ± 0.0005 | 1.5139 ± 0.0005 | 1.5113 ± 0.0005 | 1.5088 ± 0.0005 | 1.5063 ± 0.0005 | 1.5039 ± 0.0005 | 1.5013 ± 0.0005 | 1355 ± 2.1 kg/m3 | 113.5 ± 2 mPa·s | 0.287 ± 0.029 S/m | 1348.1 ± 2.1 kg/m3 | 0.205 ± 0.002 W/m/K | 69.2 ± 0.9 mPa·s | 0.45 ± 0.045 S/m | 1341.3 ± 2.1 kg/m3 | 0.204 ± 0.002 W/m/K | 46 ± 0.6 mPa·s | 0.204 ± 0.002 W/m/K | 0.203 ± 0.002 W/m/K | 0.202 ± 0.002 W/m/K | viscosity ([2]; 283.15 K): 199 ± 4.9 mPa·s; thermal conductivity ([2]; 283.15 K): 0.205 ± 0.002 W/m/K; electrical conductivity ([2]; 313.15 K): 0.683 ± 0.068 S/m; mass density ([2]; 313.15 K): 1334.5 ± 2.1 kg/m3; viscosity ([2]; 323.15 K): 32 ± 0.4 mPa·s; electrical conductivity ([2]; 323.15 K): 0.986 ± 0.099 S/m; mass density ([2]; 323.15 K): 1327.8 ± 2.1 kg/m3; viscosity ([2]; 333.15 K): 23 ± 0.3 mPa·s; electrical conductivity ([2]; 333.15 K): 1.36 ± 0.14 S/m; mass density ([2]; 333.15 K): 1321.1 ± 2.1 kg/m3; viscosity ([2]; 343.15 K): 17.3 ± 0.2 mPa·s; electrical conductivity ([2]; 343.15 K): 1.75 ± 0.18 S/m; mass density ([2]; 343.15 K): 1314.5 ± 2.1 kg/m3; thermal conductivity ([2]; 343.15 K): 0.201 ± 0.002 W/m/K
4 | OCC(O)CO [glycerol] |  |  |  |  |  |  |  |  |  |  |  | 0.284 ± 0.002 W/m/K |  |  |  | 0.284 ± 0.002 W/m/K |  | 0.284 ± 0.002 W/m/K | 0.284 ± 0.002 W/m/K | 0.284 ± 0.002 W/m/K | thermal conductivity ([2]; 283.15 K): 0.284 ± 0.002 W/m/K
5 | CCCC[P+](C)(CCCC)CCCC.[Cl-] [methyltributylphosphonium chloride] | 1.5053 ± 0.0005 | 1.5037 ± 0.0005 | 1.4999 ± 0.0005 | 1.4972 ± 0.0005 | 1.4952 ± 0.0005 | 1.4923 ± 0.0005 | 1.4888 ± 0.0005 | 964.23 ± 2 kg/m3 | 13511 ± 1300 mPa·s | 0.00254 ± 0.00026 S/m | 958.67 ± 2 kg/m3 | 0.159 ± 0.002 W/m/K | 4692 ± 360 mPa·s | 0.0059 ± 0.00059 S/m | 953.44 ± 2 kg/m3 | 0.158 ± 0.002 W/m/K | 1914 ± 120 mPa·s | 0.157 ± 0.002 W/m/K | 0.156 ± 0.002 W/m/K | 0.155 ± 0.002 W/m/K | electrical conductivity ([2]; 313.15 K): 0.0131 ± 0.0013 S/m; mass density ([2]; 313.15 K): 948.08 ± 2 kg/m3; viscosity ([2]; 323.15 K): 859 ± 42 mPa·s; electrical conductivity ([2]; 323.15 K): 0.029 ± 0.0029 S/m; mass density ([2]; 323.15 K): 942.74 ± 2 kg/m3; viscosity ([2]; 333.15 K): 416.8 ± 16 mPa·s; electrical conductivity ([2]; 333.15 K): 0.052 ± 0.0052 S/m; mass density ([2]; 333.15 K): 937.42 ± 2 kg/m3; electrical conductivity ([2]; 343.15 K): 0.0941 ± 0.0094 S/m; mass density ([2]; 343.15 K): 932.12 ± 2 kg/m3; thermal conductivity ([2]; 343.15 K): 0.154 ± 0.002 W/m/K
6 | CCCC[P+](C)(CCCC)CCCC.COS(=O)(=O)[O-] [tributylmethylphosphonium methyl sulfate] | 1.4782 ± 0.0005 | 1.4755 ± 0.0005 | 1.4728 ± 0.0005 | 1.4702 ± 0.0005 | 1.4673 ± 0.0005 | 1.4647 ± 0.0005 | 1.4619 ± 0.0005 | 1066.59 ± 2 kg/m3 | 1434 ± 82 mPa·s | 0.00749 ± 0.00075 S/m | 1060.4 ± 2 kg/m3 | 0.16 ± 0.002 W/m/K | 650.6 ± 29 mPa·s | 0.0158 ± 0.0016 S/m | 1054.25 ± 2 kg/m3 | 0.159 ± 0.002 W/m/K | 339.2 ± 11 mPa·s | 0.159 ± 0.002 W/m/K | 0.158 ± 0.002 W/m/K | 0.157 ± 0.002 W/m/K | electrical conductivity ([2]; 313.15 K): 0.0278 ± 0.0028 S/m; mass density ([2]; 313.15 K): 1048.13 ± 2 kg/m3; viscosity ([2]; 323.15 K): 189.4 ± 4.6 mPa·s; electrical conductivity ([2]; 323.15 K): 0.0483 ± 0.0048 S/m; mass density ([2]; 323.15 K): 1042.02 ± 2 kg/m3; viscosity ([2]; 333.15 K): 113.9 ± 2 mPa·s; electrical conductivity ([2]; 333.15 K): 0.0882 ± 0.0088 S/m; mass density ([2]; 333.15 K): 1036.12 ± 2 kg/m3; viscosity ([2]; 343.15 K): 72.4 ± 1 mPa·s; electrical conductivity ([2]; 343.15 K): 0.139 ± 0.014 S/m; mass density ([2]; 343.15 K): 1030.18 ± 2 kg/m3; thermal conductivity ([2]; 343.15 K): 0.157 ± 0.002 W/m/K
